Measurements: US20030017166A1, “Combination preparation for the therapy of immunological diseases” (priority 2001, published 2003)

Tests used:
[1] = system: susceptibility to infection; conditions: clinical investigations and investigations on experimental animals; cited from earlier work
rheumatoid arthritis = conditions: monotherapy; cited from earlier work
[2] = system: allergic rhinitis/conjunctivitis against hazelnut pollen and grass pollen; experiment: Allergic rhinitis/conjunctivitis on exposure to hazelnut pollen or grass pollen in patients; assay type: in vivo, human
Description: The effect of the combination therapy on type I allergy (allergic conjunctivitis and rhinitis) was investigated since type I allergy is an antibody-induced disease which is regulated by T cells. […] In the allergy investigations, contact with the antigen took place aerogenically, by exposure to hazelnut pollen or the pollen of grasses.
First of all, the test subjects were exposed to the allergen pollens in order to verify the existence of the allergy.
After a month, the two test subjects were given a loading dose of in each case 100 mg of leflunomide on 3 consecutive days. The test subjects were then given a constant daily dose of 20 mg of leflunomide.
On the 4th day of the leflunomide administration, the test subjects were exposed to one of the two allergens.
After these 30 days, the leflunomide was eliminated from the body in an accelerated manner by means of the 3× daily administration of cholestyramine over a period of 10 days. During this accelerated elimination, the daily exposure to antigen was continued.
In addition, the test subjects were able to use vasoconstrictors, such as Otriven® nasal drops and Yxin® eyedrops, to alleviate acute symptoms.
Neomycin sulfate was used, at a concentration of 50 mg/ml in physiological sodium chloride solution, as an immunomodulatory substance, as eyedrops and as a metered nasal spray. During the allergen exposure (season of airborne pollen), the neomycin solution was initially administered every 3 hours during the day. As soon as symptoms of an allergic reaction, such as severe itching, tears, flow of nasal secretion or sneezing impulses, occurred, this inflammatory reaction was suppressed, within the first 5 days, by using the dexametasone eyedrops, the dexamethasone nasal spray, xylometazoline nasal drops and Yxin® eyedrops. The steroids and the vasoconstrictors were administered as required.

[3] = system: contact allergy to nickel and cobalt (contact dermatitis); experiment: Contact dermatitis induced with nickel or cobalt vaseline preparations in volunteer test subjects; assay type: in vivo, human
Description: Contact dermatitis was selected as a model disease for the large number of T cell-mediated immune reactions (generally: overshooting damaging immune reactions) since it can be induced by applying the contact allergens to the skin and the severity of the inflammatory reaction and immune reaction can readily be assessed by observing the skin symptoms.
The contact allergies were induced by applying preparations in white vaseline. These vaseline preparations contained either 1% cobaltII chloride or 5% nickelII sulfate.
For inducing the contact dermatitis, the vaseline preparation was applied once daily to an area of approx. 2×2 cm^2, usually on the upper arm or the lower arm.
The contact dermatitis was subdivided into the following levels in accordance with the extent of the inflammatory reaction:
Level 1: very minor inflammatory reaction, slight reddening of the skin;
Level 2: minor inflammatory reaction, reddening of the skin and possible itching;
Level 3: slight inflammatory reaction, reddening and edematous swelling of the skin, itching;
Level 4: moderate inflammatory reaction, reddening, edematous swelling, vesicles or blister formation, itching;
Level 5: pronounced inflammatory reaction: reddening, edematous swelling, vesicles and blister formation, weeping erosions and possible incrustation.
The severity of the inflammatory reaction which occurred was controlled by administering Ultralan® tablets systemically. When the antigen-specific regulatory immune response was induced, the inflammatory reaction was kept in the range of levels 1 and 2 by administering fluocortolone (Ultralan®). If a contact dermatitis of level 3 or higher developed despite the administration of Ultralan®, the dose of Ultralan® was then increased up to the next dosage level. If required, the dose was increased once again 2 days after the last increase in the dose.
As soon as it was no longer possible to observe any symptoms of the contact dermatitis at a given dosage level of Ultralan®, the dose was reduced on the following day and subsequently maintained once again until all the symptoms of the contact allergy had disappeared, after which the dose of Ultralan was reduced once again until, finally, it was no longer necessary to administer any Ultralan®.
As a rule, the following gradations in the daily doses of Ultralan® were employed: 20 mg, 15 mg, 10 mg, 7.5 mg, 5 mg, 2.5 mg and 0 mg.
An appropriate blood level of leflunomide was achieved by means of a loading dose of 100 mg on the first three consecutive days of the leflunomide therapy; after that, the leflunomide dose was reduced to 20 mg per day. Unless otherwise stated, this dose of leflunomide was maintained for up to 30 days after the time point at which the administration of flucortolone was terminated.
Subsequently, the leflunomide was eliminated at an accelerated rate from the body by means of administering 3× daily doses of 8 grams of cholestyramine over a period of 10 days.
As described above, the antigen is applied to the skin once a day using a preparation prepared from white vaseline. As a rule, the antigen was administered up to the tenth day after the last administration of leflunomide.
In the investigations into the development of a regulatory immune response in connection with the contact dermatitis, a fresh exposure to the antigen against which a regulatory immune response had been developed was carried out no earlier than 1 month after the last contact with the antigen.

Cc1oncc1C(=O)Nc1ccc(C(F)(F)F)cc1 [leflunomide, N-(4-trifluoromethylphenyl)-5-methylisoxazole-4-carboxamide]
susceptibility to infection [1]: does not increase susceptibility to infection
effect on rheumatoid arthritis when administered on its own (rheumatoid arthritis): able to reduce the progression of rheumatoid arthritis but is not able to cure the disease
reaction on first allergen exposure under leflunomide ([2]; Investigation 4.1, 2 test subjects, 4th day of leflunomide, before steroid): reacted immediately with allergic symptoms
allergy symptoms during steroid-free leflunomide plus antigen phase and accelerated elimination ([2]; Investigation 4.1, 30 days plus 10 days cholestyramine, daily antigen): no symptoms of an allergy appeared
allergic symptoms on re-exposure to the allergen given during leflunomide ([2]; Investigation 4.1, after one month break, daily exposure over 2 weeks): did not develop any symptoms of an allergic reaction
allergy symptoms on exposure to the antigen not given during leflunomide ([2]; Investigation 4.2, grass pollen dust 1x daily, within 2 days): developed symptoms of an allergy
allergy symptoms to the leflunomide-associated antigen under inflammatory conditions ([2]; Investigation 4.3, 3rd and 4th day, only leflunomide-associated antigen administered): Symptoms of an allergy developed
allergy symptoms on re-exposure to the leflunomide-associated antigen ([2]; Investigation 4.4, after a further 4 weeks, 2 weeks of daily exposure): No symptoms of an allergy developed
symptoms of contact allergy on provocation with the antigen given during leflunomide ([3]; Investigation 1.1, 4 weeks after end of treatment cycle, 2 weeks provocation): did not appear in any of the test subjects
symptoms of the contact allergy during 30 days of daily leflunomide and antigen ([3]; Investigation 1.1, after steroids completely discontinued): not possible to observe any symptoms of the contact allergy
symptoms of the contact allergy during accelerated elimination of leflunomide ([3]; Investigation 1.1, cholestyramine over 10 days, continued allergen exposure): not observed in any of the test subjects
level of skin reaction (contact dermatitis levels 1-5) ([3]; Investigation 1.1, leflunomide 100 mg x 3 days then 20 mg/day, allergen from 4th day, within 2 days, before steroids): 3 to 4 level
level of contact dermatitis on exposure to the antigen not given during leflunomide ([3]; Investigation 1.2, 4 weeks later, within 2 days): 3 to 4 level
symptoms of contact allergy to the leflunomide-associated allergen applied on still inflamed skin ([3]; Investigation 1.3, allergen switched on 3rd day): persisted as long as the contact allergen was being administered
contact allergy on re-exposure to the leflunomide-associated antigen after inflammation regressed ([3]; Investigation 1.4, after 4 weeks break, exposure period of 2 weeks): did not react with any contact allergy
symptoms of contact allergy after switch to the leflunomide-associated antigen under inflammation ([3]; Investigation 1.5, period of 2 weeks): persisted
level of contact allergy on exposure to the antigen not given during leflunomide ([3]; Investigation 1.5, within 2 days): 3 to 4 level
symptoms of contact allergy on exposure to the leflunomide-associated allergen ([3]; Investigation 1.6, 4 weeks later, first 2 weeks of exposure): No symptoms of a contact allergy were observed
time to disappearance of inflammatory reactions after UV-A on the side with contact allergen ([3]; Investigation 1.6, continued allergen exposure): ≥ 7 days
symptoms of inflammation after UV-A irradiation on arm with contact allergen versus arm without ([3]; Investigation 1.6, identical irradiation of both arms): somewhat stronger
course of contact allergy on allergen exposure ([3]; Investigation 3.1, shortened 2-week phase, days following first reddening): increasing symptoms of a contact allergy
onset of slight reddening after beginning allergen exposure ([3]; Investigation 3.1, steroid-free leflunomide plus allergen phase shortened from 30 days to 2 weeks, exposure 4 weeks after discontinuing leflunomide): 3 to 4 days
regulatory immune response 4 weeks after treatment ([3]; Investigation 3.3, leflunomide and contact allergen continued for 20 days, then accelerated elimination): a stable antigen-specific regulatory immune response had developed

C[C@@H]1C[C@H]2[C@@H]3CCC4=CC(=O)C=C[C@]4(C)[C@@]3(F)[C@@H](O)C[C@]2(C)[C@@]1(O)C(=O)CO [dexamethasone]
requirement for dexamethasone administrations, initial average ([2]; Investigation 5.1, under neomycin solution 50 mg/ml every 3 hours, start of first 5 days): 4 administrations per day
requirement for dexamethasone administrations, after decrease ([2]; Investigation 5.1, under neomycin solution, within the first 5 days): 2 administrations per day

Neomycin sulfate
allergy symptoms on intensified antigen exposure during neomycin ([2]; Investigation 5.1, 2 test subjects, direct exposure to hazelnut pollen twice daily, no dexamethasone or cromoglycic acid): no allergy symptoms appeared in either of the test subjects
allergy symptoms on re-exposure to the allergen given during neomycin ([2]; Investigation 5.1, after a month break, daily exposure for 2 weeks): did not exhibit any allergy symptoms
allergy symptoms on exposure to the antigen not given during neomycin ([2]; Investigation 5.2, dust of grass pollens 1x daily, within 2 days): developed symptoms of an allergy
allergy symptoms to the neomycin-associated antigen under inflammatory conditions ([2]; Investigation 5.3, 3rd and 4th day, only neomycin-associated antigen administered): Symptoms of an antigy developed
allergy symptoms on re-exposure to the neomycin-associated antigen ([2]; Investigation 5.4, after another break of 4 weeks, 2 weeks of daily exposure): had not developed any allergy symptoms

C[C@@H]1C[C@H]2[C@@H]3C[C@H](F)C4=CC(=O)C=C[C@]4(C)[C@H]3[C@@H](O)C[C@]2(C)[C@H]1C(=O)CO [Ultralan®, fluocortolone]
allergic symptoms immediately after antigen exposure under Ultralan and vasoconstrictors ([2]; Investigation 4.1, 10 mg Ultralan, Otriven nasal drops, Yxin eyedrops, with leflunomide): only slight symptoms of an allergic reaction
time to complete disappearance of allergy symptoms directly after antigen exposure ([2]; Investigation 4.1, constant treatment with Ultralan and leflunomide): ≤ 4 days
contact dermatitis while Ultralan was being reduced stepwise ([3]; Investigation 1.1, 4 test subjects, Ultralan alone, no leflunomide, continued allergen exposure): reappeared
time to complete disappearance of contact allergy symptoms ([3]; Investigation 1.1, Ultralan added to leflunomide and allergen, allergy adjusted to grade 1-2): 3 to 5 days
symptoms of contact allergy after brief Ultralan suppression and discontinuation ([3]; Investigation 1.5, allergen continued for further 2 weeks after Ultralan discontinued): no symptoms of any contact allergy appeared
symptoms of contact allergy after abrupt Ultralan discontinuation ([3]; Investigation 2.1, 2 test subjects, fully suppressive Ultralan dose for 4 weeks with leflunomide and allergen, one day after discontinuation): Massive symptoms of the contact allergy developed
time to disappearance of symptoms ([3]; Investigation 3.2, single administration of 5 mg Ultralan with simultaneous leflunomide): one
dose of Ultralan sufficient to restrict the symptoms of the contact allergy to levels 1 to 2 ([3]; systemic tablets, as a rule): at most 10 mg/day
